{
  "source": "patent US9642839B2",
  "about": "“Substance having tyrosine kinase inhibitory activity and preparation method and use thereof” (Institute of Radiation Medicine, China Academy of Military …, priority 2013, dated 2017)",
  "key": {"[1]": {"system": "protein tyrosine kinase (PTK)", "experiment": "PTK activity assay with mouse brain tissue extract (ELISA, OD 492 nm)", "format": "biochemical", "details": "at 400 μM", "method": "Tyrosine kinase buffer: 10 mL 1M HEPES (pH 7.5), 0.4 mL 5% BSA/PBS, 0.2 mL 0.1M Na3VO4, and 1 mL 5M NaCl were added to 88.4 mL double distilled water (DDW) (HEPES: Amresco; Na3VO4: Sigma).\nExtraction of tissue extract PTK: mouse brain tissue was quickly removed and weighed, followed by addition of five-fold volumes of pre-cooled homogenization buffer for homogenization. After centrifugation at 4° C., 1,000 g for 10 min, nuclei and cell debris were removed. The supernatant S1 was collected and centrifuged at 4° C., 10,000 g for 20 min, and then the supernatant S2 was collected. The precipitate P2, which represents the crude membrane protein fraction, was retained. S2 included cytoplasmic protein, and was used for testing protein tyrosine kinase (PTK) activity. In the detection of the membrane protein fraction, two-fold volumes of lysis buffer was added to P2, and the resultant was placed on ice for 10 min and centrifuged at 4° C., 10,000 g for 10 min. The supernatant S3, which represents the crude membrane protein including soluble membrane protein, was collected for testing PTK activity. Protein content in cytoplasm or membrane protein was detected by using BCA protein concentration kit (purchased from Beyotime Institute of Biotechnology). The tissue extract was stored at −70° C.\nCoating of 96-well plate: PTK substrate was dissolved and added in an amount of 100 μl to each well. The plate was covered with its lid, and incubated at 4° C. overnight (10-12 hours). Then it was washed with 200 μl elution buffer once, and dried at 37° C. for 2 h. After that, it was washed with 10 mM PBS once, dried at room temperature, and then stored at 4° C. for further use.\nGroups: blank control: 80 μl 1× tyrosine kinase buffer containing ATP+20 μl 1× tyrosine kinase buffer; negative control: 80 μl 1× tyrosine kinase buffer containing ATP+10 μl 1× tyrosine kinase buffer+7 μl tissue extract+3 μl 1× tyrosine kinase buffer; positive control: 80 μl 1× tyrosine kinase buffer containing ATP+10 μl Gefitinib+7 μl tissue extract+3 μl 1× tyrosine kinase buffer (first, the positive drug was allowed to interact with the tyrosine kinase tissue extract at room temperature for 10 min, and meanwhile the tissue extract for the negative control group was also placed at room temperature for 10 min, and then 80 μl 1× tyrosine kinase buffer containing ATP was added to respective groups); vehicle control: 80 μl 1× tyrosine kinase buffer containing ATP+10 μl DMSO+7 μl tissue extract+3 μl 1× tyrosine kinase buffer; drugs to be screened: 80 μl 1× tyrosine kinase buffer containing ATP+10 μl drug to be tested +7 μl tissue extract+3 μl 1× tyrosine kinase buffer.\nPTK activity assay: 1× tyrosine kinase buffer was prepared by evenly mixing 1 mL (10×) tyrosine kinase buffer with 9 mL DDW. The tissue extract was diluted with 1× tyrosine kinase buffer appropriately, mixed with it gently and evenly, and placed on ice. ATP stock solution was dissolved by evenly mixing 48 μl ATP stock solution with 1 mL 1× tyrosine kinase buffer, and placed on ice. The microplate reader was added in respective wells with the groups formulated as above, covered with the lid, and incubated at room temperature for 30 min. The microplate reader was washed with 200 μl elution buffer and tapped until the residual buffer was removed, and this procedure was repeated for five times. To each well, 100 μl antibody diluent (antibody elution buffer diluted at a ratio of 1:2000) was added. The reader was covered with the lid, and incubated at room temperature for 30 min. OPD solution was prepared by addition of 4 mg OPD into a mixture of 4.86 mL 0.1 mol/L citric acid solution and 5.14 mL 0.2 mol/L Na2HPO4 solution, followed by addition of 50 μl 30% H2O2 to allow for complete dissolution, and then was protected from light. The antibody solution was removed. The reader was washed with 200 μl elution buffer and tapped until the residual buffer was removed, and this procedure was repeated for five times."}, "MHCC97-H cells": {"system": "MHCC97-H cells", "details": "MHCC97-H s.c. nude mice; 16 mg/kg intraperitoneal, once every 24 h, 6 administrations; by tumor weight", "method": "(§1) Establishment of tumor-bearing models: Tumor cells were cultured in T75 flasks until achieving a logarithmical growth. The cells were trypsinized and DMEM medium containing 10% fetal bovine serum was added to terminate trypsinization. The cells were washed with PBS twice, and suspended. Cell concentration was adjusted to 5×10^7 cells/ml, and 150 μl cell suspension was injected into the right flank of the mice. After inoculation, the tumors in the nude mice were observed every day, and the mice were grouped when the tumors reached a volume of 100 mm^3. Each nude mouse was numbered, and the tumor size was measured. The data was entered into EXCEL for sorting and thus excluding extreme values. Random numbers were generated corresponding to the number of the mice, and the mice were randomly grouped using these random numbers.\n(§2) Administration: intraperitoneal injection was used at doses of 4 mg/kg, 8 mg/kg, and 16 mg/kg, respectively. The vehicle control group was injected with the same volume of DMSO. The mice received treatment once every 24 h, and a total of 6 times of administrations were given. During administration, changes of tumor size (length×width×width/2) were monitored and recorded in a real-time manner, and the results were expressed as mean±standard deviation."}, "MHCC97-L cells": {"system": "MHCC97-L cells", "details": "MHCC97-L s.c. nude mice; 16 mg/kg intraperitoneal, once every 24 h, 6 administrations; by tumor weight", "method": "as §1, §2"}, "MHCC-97H cells": {"system": "MHCC-97H cells", "experiment": "Liver orthotopic tumor model", "format": "in vivo, nude mice", "details": "for Tumor inhibition rate / Weight of tumor: 6 administrations; for Average weight (X ± S), End: animal weight at end, in g (unit assumed)", "description": "The medium was changed once every 1-2 days. […] The subcultured tumor cells were digested under a sterile condition and resuspended with sodium chloride injection, and subcutaneously inoculated at the right flank of nude mice. When the subcutaneous tumors in the nude mice grew to a volume about 1,500-2,000 mm^3, the tumor mass was removed under a sterile condition, and cut into pieces in a size about 1.0×1.0 mm for future use. Then the nude mice to be inoculated were anesthetized and fixed on the operating table. The abdominal skin was disinfected, and an incision about 1 cm was made in the left upper abdomen to expose the liver, with the surgical site covered. The prepared tumor piece was placed into a dedicated inoculation trocar, and was implanted into the liver by using the trocar. The bleeding site of the wound was treated with sterilized gauze or sterilized cotton swab to stop the bleeding. Then liver which underwent surgery was placed back into the abdominal cavity of mice. The abdominal muscles and skin were sutured with 4/0 gauge surgical needle sequentially. After normal feeding of the mice for 2 weeks, size of liver tumor was observed under B-ultrasound.\nMethod: Animal models were randomized into vehicle control group, intraperitoneal low dose group (18 mg/kg), intraperitoneal high dose group (36 mg/kg), and gavage group (36 mg/kg), with 9 mice each group. The mice received treatment once every 24 hours. Intraperitoneal administration was done by intraperitoneal injection. The vehicle control group received DMSO injected intraperitoneally. Six times of administration were given. After the last administration, animals were kept for another 3 weeks, then sacrificed by cervical dislocation, and dissected to obtain liver. Visible tumor was dissected and weighed."}, "[2]": {"details": "intraperitoneal high dose 36 mg/kg"}, "[3]": {"details": "intraperitoneal low dose 18 mg/kg"}},
  "data": [
    {"smiles": "Cc1ccccc1NS(=O)(=O)c1ccc2c(c1)/C(=C/c1nc3ccccc3[nH]1)C(=O)N2", "note": "[Indo 5, 3-(1H-benzimidazol-2-methylene)-5-(2-methylphenylaminosulfo)-2-indolone]", "values": [
      {"measurement": "Inhibition rate on tyrosine kinase", "setting": "[1]", "result": 53.4, "unit": "%"},
      {"measurement": "Tumor inhibition rate", "setting": "MHCC97-H cells", "result": 61, "unit": "%"},
      {"measurement": "Tumor inhibition rate", "setting": "MHCC97-L cells", "result": 68, "unit": "%"},
      {"measurement": "Tumor inhibition rate", "setting": "MHCC-97H cells; gavage (PO) 36 mg/kg", "result": 62.2, "unit": "%"},
      {"measurement": "Weight of tumor", "setting": "MHCC-97H cells; gavage (PO) 36 mg/kg", "result": "0.401 ± 0.530", "unit": "g"},
      {"measurement": "Average weight (X ± S), End", "setting": "MHCC-97H cells; gavage (PO) 36 mg/kg", "result": "21.01 ± 3.41"},
      {"measurement": "Tumor inhibition rate", "setting": "MHCC-97H cells; [2]", "result": 62.4, "unit": "%"},
      {"measurement": "Weight of tumor", "setting": "MHCC-97H cells; [2]", "result": "0.399 ± 0.486", "unit": "g"},
      {"measurement": "Disappearance of liver tumor at end of experiment", "setting": "MHCC-97H cells; intraperitoneal high dose 36 mg/kg, 9 animals", "result": "Liver cancer was gone in one animal"},
      {"measurement": "Average weight (X ± S), End", "setting": "MHCC-97H cells; [2]", "result": "21.18 ± 1.44"},
      {"measurement": "Tumor inhibition rate", "setting": "MHCC-97H cells; [3]", "result": 55.5, "unit": "%"},
      {"measurement": "Weight of tumor", "setting": "MHCC-97H cells; [3]", "result": "0.473 ± 0.497", "unit": "g"},
      {"measurement": "Average weight (X ± S), End", "setting": "MHCC-97H cells; [3]", "result": "20.61 ± 2.33"}
    ]}
  ]
}
